From patent publication US20250134902A1, “DRUG REPURPOSING FOR DELAYED TREATMENT OF ISCHEMIC STROKE” (UNIVESRITY OF NORTH TEXAS HEALTH SCIENCE CENTER, priority 2022, published 2025)

How the values were obtained:
neuronal MN9D cell line = assay: BDNF secretion via in situ ELISA; assay type: cell-based; details: 10 μM, 24 hrs, MN9D cells; normalized to maximal response of 10 μM 4-PPBP; mean ± SEM; asterisk = significantly different from 4-PPBP
From the text: Measuring BDNF secretion via in situ ELISA. […] The in situ ELISA improves on traditional ELISA by seeding BDNF-secreting cells directly into the wells pre-coated with an anti-BDNF primary antibody. BDNF secreted by these cells is immediately captured by the primary antibody, drastically increasing the sensitivity and reproducibility of the ELISA assay. Intact cells are removed […] the addition of the secondary and tertiary antibodies. The amount of BDNF secreted from the neuronal MN9D cells was quantified using an in situ ELISA assay developed using the BDNF EMAX® ImmunoAssay kit (Cat. No. G7611, Promega, Madison, WI). Briefly, a NUNC™ MAXISORP™ flat-bottom, polystyrene, 96-well immunoplate was coated for 48 hrs at 4° C. with an anti-BDNF monoclonal antibody diluted 1:1000 v/v in carbonate buffer containing 25 mM sodium bicarbonate and 25 mM sodium carbonate, pH 9.7. Unbound antibody was removed by washing 5 times with 150 μL of TBST buffer (20 mM Tris-HCl, pH7.6, 150 mM NaCl, and 0.05% (v/v) TWEEN® 20), before blocking non-specific sites first with blocking buffer for 1 hr and then with culture medium for 2 hrs. Cells were seeded at 35,000 cells per well and incubated overnight at 37° C. in a humidified CO2 incubator. The following day, the wells were replaced with fresh culture media containing either experimental compounds or vehicle controls, then incubated for an additional 24 hours. In addition, on the same plate, but in separate wells, BDNF standards were added ranging in concentration from 15.6-250 pg/mL. After 24 hrs incubation with experimental compounds, the media was aspirated and 100 μL of Dulbecco's phosphate saline (D-PBS without Ca^2+ and Mg^2+ supplemented with 5 mM EDTA) was added to each well and incubated for 15 min at 37° C. to promote cell lifting. Cells were then detached from the bottom of wells by triturating in the center and around the edges of the well. After removing all cell debris, the wells were rinsed five times with 150 μL of TBST. The plate was then incubated with 1:500 v/v diluted polyclonal anti-human BDNF antibody for 2 hrs at room temperature. This antibody was removed, and wells were washed five times with 150 μL of TBST, before incubating with 1:200 v/v diluted polyclonal Anti-IgY HRP conjugate for 2 hrs at room temperature. Wells were then washed five times with 150 μL of TBST and the remaining specifically bound polyclonal antibody was detected with the 50 μL colorimetric HRP substrate 3,3′,5,5′-Tetramethylbenzidine (TMB). The reaction was terminated with 50 μL of 1 M HCl and the color intensity was quantified by measuring the absorbance at 450 nm using a FLEXSTATION® 3 plate reader (Molecular Devices, Sunnyvale, CA). […] A one-way ANOVA with a Bonferroni multiple comparisons post-hoc analysis (P<0.05) was applied to determine significant differences between groups.
Further, BDNF secreted from MN9D cells can be detected 24 hours after treatment with S1R ligand, whereas BDNF secreted from the B104 cell line takes 7 days to be detected (Fujimoto, et al., 2012).
An in situ ELISA approach was utilized because of its improved sensitivity related to its rapid capture of secreted BDNF (Balkowiec & Katz, 2000; Dalwadi, et al., 2017). […] Values are averages of 2-10 experiments±SEM, and each experiment was performed in triplicate. Statistical significance at P<0.05 was determined by ANOVA followed by a Bonferroni's post-hoc test and are marked with an asterisk.

rat blood = assay: Clotting (streak) assay of thrombotic potential
Procedure: Clotting assays. Thrombotic potential was assessed with trunk blood from donor rats using a protocol modified from Kim et al. (Kim et al., 2010). Oxeladin was compared to whole blood with or without the anticoagulant benzamidine and several other S1R ligands at doses 10× greater than those that stimulate the release of BDNF (Dalwadi et al., 2022; Dalwadi et al., 2017). Blood was rapidly collected into chilled, pre-weighed plastic tubes containing a known quality of EDTA disodium salt (>3.7 mM) electrostatically-coated onto the tube wall. Blood was prevented from coagulating by gently swirling the chilled EDTA-coated tube. The tube was weighed and the volume of collected blood calculated in order to compute the exact concentration of EDTA in the uncoagulated blood sample allowing us to determine which concentration of calcium to add back into the blood to initiate coagulation. Uncoagulated blood samples were stored chilled. The following was be dispensed into NUNC™ MICROWELL™ MiniTrays: 8 μL/well of normal saline containing a concentration of calcium 1.2 mM higher than that of the concentration of EDTA in the blood sample, 1 μL/well of oxeladin, 3 mM benzamidine anticoagulant positive control, or untreated or vehicle negative controls, and 1 μL/well of (EDTA-treated) uncoagulated rat blood. Plates were tilted at a 45° angle at 5, 15, 30, 45 and 60 minutes to observe coagulation (i.e., no streaking) and compared to the controls. Each triplicate well was scored by a treatment-blinded observer as Yes (coagulation, no streaking) or No (no coagulation, streaking). The experiment was repeated with two separate donor rats.
Referring to FIG. 5, the effect on thrombotic activity of test drugs, benzamidine anticoagulant positive control, or untreated or vehicle negative controls on whole blood from donor rats was assessed by tilting treated blood samples at a […] to observe coagulation (i.e., no streaking) between […] (top panel). Blood coagulation was represented by a value between 1 (no streaking, coagulation) and 0 (streaking, less or no coagulation), and values were assigned for each test drug, benzamidine, and untreated and vehicle controls (bottom panel). Quantitative results from these clotting assays, including coagulation half-life, are summarized below in Table 5.

With CCN(CC)CCOCCOC(=O)C(CC)(CC)c1ccccc1 [Oxeladin] as the compound, how does the “Efficacy of BDNF secretion” value (neuronal MN9D cell line) read?
Its value is 0.55 ± 0.04.

What about the “effect on thrombosis in blood” value (rat blood) of the same compound?
Its value is “do not alter thrombosis”.
